The test system of one data set is Trypanosoma brucei. Briefly: Antitrypanosomal activity against Trypanosoma brucei incubated for 24 hrs by luminescence based ClarioStar plate reader analysis. It is filed as functional, organism-based.
For data set [1], the target named is Rhodesain (Trypanosoma brucei rhodesiense) (UniProt Q95PM0). Briefly: Inhibition of Trypanosoma brucei rhodesiense rhodesain expressed in Pichia pastoris using Cbz-Phe-Arg-AMC as substrate assessed as second order rate constant obtained from ratio of Kinact by Ki incubated for 30 mins by fluorescence assay.
In the next data set the target is Rhodesain (Trypanosoma brucei rhodesiense, UniProt Q95PM0). Briefly: Inhibition of Trypanosoma brucei rhodesiense rhodesain expressed in Pichia pastoris using Cbz-Phe-Arg-AMC as substrate assessed as inhibition constant incubated for 30 mins by fluorescence assay.
Data set [2] is described as follows: Cytotoxicity against human SH-SY5Y cells assessed as reduction in cell viability incubated for 24 hrs by MTT assay. It is filed as toxicity, cell-based. In general terms: Tetrazolium assays rely on reduction of a dye to a coloured formazan, in cell work by metabolically active cells.
For data set [3], the target named is Rhodesain (Trypanosoma brucei rhodesiense) (UniProt Q95PM0). Briefly: Inhibition of Trypanosoma brucei rhodesiense rhodesain expressed in Pichia pastoris using Cbz-Phe-Arg-AMC as substrate assessed as inactivation constant incubated for 30 mins by fluorescence assay.
Data set [4] shares this target. Briefly: Inhibition of Trypanosoma brucei rhodesiense rhodesain expressed in Pichia pastoris using Cbz-Phe-Arg-AMC as substrate at 20 uM incubated for 30 mins by fluorescence assay relative to control.

SMILES strings stand for the structures.

Sequence of Rhodesain (Q95PM0 whole entry): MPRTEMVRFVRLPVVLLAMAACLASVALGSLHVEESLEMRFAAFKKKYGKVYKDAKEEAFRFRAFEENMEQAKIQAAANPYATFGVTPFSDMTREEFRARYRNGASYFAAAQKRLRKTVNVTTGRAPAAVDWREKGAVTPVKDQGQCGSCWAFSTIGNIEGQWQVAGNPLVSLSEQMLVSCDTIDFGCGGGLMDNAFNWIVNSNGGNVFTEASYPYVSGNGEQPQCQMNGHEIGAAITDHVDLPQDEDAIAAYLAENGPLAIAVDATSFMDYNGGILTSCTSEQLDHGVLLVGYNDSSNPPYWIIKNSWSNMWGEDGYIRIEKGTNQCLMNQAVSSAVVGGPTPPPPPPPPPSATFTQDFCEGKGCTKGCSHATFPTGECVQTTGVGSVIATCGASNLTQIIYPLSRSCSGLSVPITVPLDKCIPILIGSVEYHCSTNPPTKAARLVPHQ
Sequence of Rhodesain (Trypanosoma brucei rhodesiense) (Q95PM0 1-450): as the sequence (Q95PM0 whole entry) above

As to `CC(=O)/C=C/[C@H](CCc1ccccc1)NC(=O)[C@H](Cc1ccccc1)NC(=O)[C@H](CC1CCCCC1)NC(=O)OCc1ccccc1`, in the data set on Trypanosoma brucei, the EC50 (as a rule, the concentration needed to bring the measured effect to its halfway point) was determined as 1300 nM. This counts as single-digit micromolar.
As to `CC(=O)/C=C/[C@H](CCc1ccccc1)NC(=O)[C@@H]1Cc2ccccc2CN1C(=O)OCc1ccccc1`, the Ratio in data set [1] was 6.7 10^3/M/min. For the same compound, at Rhodesain, the Ki (as a rule, the dissociation constant of the complex between target and ligand, obtained from inhibition or displacement) was 720 nM. Besides, in data set [2], the 50% cytotoxic concentration (CC50) (as a rule, the concentration at which the toxic effect on the cells reaches its halfway point) at 24 h is more than 100000 nM. The 50% effective concentration (EC50) in the data set on Trypanosoma brucei turned out to be 670 nM. For the same compound, in data set [3], the Kinact stood at 0.005 min⁻¹.
As for `CC(=O)/C=C/[C@H](CCc1ccccc1)NC(=O)[C@@H]1Cc2ccccc2CN1C(=O)c1c(F)cccc1F`, the inhibition (in general, the change of the read-out against control, counted positive when it falls) in data set [4] came out at 32%.
`CC(=O)/C=C/[C@H](CCc1ccccc1)NC(=O)[C@H](Cc1ccccc1)NC(=O)[C@H](CC(C)C)NC(=O)OCc1ccccc1` had a half-maximal effective concentration (EC50) in the data set with Trypanosoma brucei of 3100 nM.
With `CC(=O)/C=C/[C@H](CCc1ccccc1)NC(=O)[C@@H]1Cc2ccccc2CN1C(=O)Nc1ccc(Cl)cc1C`, the inhibition in data set [4] is 40%.
On the same count and under the same terms, for `CC(=O)/C=C/[C@H](CCc1ccccc1)NC(=O)[C@@H]1Cc2ccccc2CN1C(=O)Nc1ccc(C)cc1` the value was 14%.
Still for that read-out and setting: for `CC(=O)/C=C/CNC(=O)[C@@H]1Cc2ccccc2CN1C(=O)c1ccc(F)cc1F` the value was 11%.
Still for that read-out and setting: for `CC(=O)/C=C/[C@H](Cc1ccccc1)NC(=O)[C@@H]1Cc2ccccc2CN1C(=O)c1ccc(F)cc1F` the value was 18.4%.
Compound `CC(=O)/C=C/[C@H](CCc1ccccc1)NC(=O)[C@@H]1Cc2ccccc2CN1C(=O)[C@H](C)NC(=O)OCc1ccccc1` registered an inhibition in data set [4] of 26%.
Regarding `CC(=O)/C=C/[C@H](CCc1ccccc1)NC(=O)[C@@H]1Cc2ccccc2CN1C(=O)c1ccc(F)cc1`, the Ratio in data set [1] was 8 10^3/M/min. Further, the Ki at Rhodesain is 1920 nM. Besides, the CC50 at 24 h in data set [2] was more than 100000 nM. The same compound registered an EC50 in the data set with Trypanosoma brucei of 850 nM. Moreover, the Kinact in data set [3] was 0.015 min⁻¹.
The matching figures for `CC(=O)/C=C/[C@H](CCc1ccccc1)NC(=O)[C@@H]1Cc2ccccc2CN1C(=O)c1ccc(F)cc1F`: 146 10^3/M/min, 90 nM, more than 100000 nM, 1210 nM and 0.012 min⁻¹.
The matching figures for `CC(=O)/C=C/[C@H](CCc1ccccc1)NC(=O)[C@@H]1Cc2ccccc2CN1C(=O)c1cccc(F)c1`: 30.1 10^3/M/min, 700 nM, more than 100000 nM, 1350 nM and 0.021 min⁻¹.
In the same order, the values of `CC(=O)/C=C/[C@H](CCc1ccccc1)NC(=O)[C@@H]1Cc2ccccc2CN1C(=O)[C@H](Cc1ccccc1)NC(=O)OCc1ccccc1` are 75.6 10^3/M/min, 11 nM, more than 100000 nM, 420 nM and 0.001 min⁻¹.
In the data set with Trypanosoma brucei, `CC(=O)/C=C/[C@H](CCc1ccccc1)NC(=O)[C@H](Cc1ccccc1)NC(=O)[C@H](Cc1ccccc1)NC(=O)OCc1ccccc1` returned an EC50 of 2600 nM.
Turning to `CC(=O)/C=C/[C@H](CCc1ccccc1)NC(=O)[C@@H]1Cc2ccccc2CN1C(=O)OC(C)(C)C`, the inhibition in data set [4] was determined as 18%.
Same read-out and setting: for `CC(=O)/C=C/[C@H](C)NC(=O)[C@@H]1Cc2ccccc2CN1C(=O)c1ccc(F)cc1F` the value was 20.2%.
As to `CC(=O)/C=C/[C@H](CCc1ccccc1)NC(=O)[C@@H]1Cc2ccccc2CN1C(=O)[C@H](CC1CCCCC1)NC(=O)OCc1ccccc1`, the Ratio in data set [1] is 47.9 10^3/M/min. In addition, at Rhodesain, the Ki was determined as 22 nM. For the same compound, the CC50 at 24 h in data set [2] is more than 100000 nM. In the data set on Trypanosoma brucei, it took 570 nM to reach a half-maximal effect (EC50). In addition, the Kinact in data set [3] was found to be 0.001 min⁻¹.
`CC(=O)/C=C/[C@H](CCc1ccccc1)NC(=O)[C@@H]1Cc2ccccc2CN1C(=O)[C@H](CC(C)C)NC(=O)OCc1ccccc1`: the Ratio in data set [1] was 68.5 10^3/M/min. The inhibitory constant (Ki) on Rhodesain stood at 16 nM. The CC50 at 24 h in data set [2] was more than 100000 nM. In the data set on Trypanosoma brucei, this compound showed an EC50 of 580 nM. The Kinact in data set [3] was determined as 0.001 min⁻¹.
Consider `CC(=O)/C=C/[C@H](CCc1ccccc1)NC(=O)[C@@H]1Cc2ccccc2CN1C(=O)c1ccccc1F`, for which the Ratio in data set [1] is 4.1 10^3/M/min. The inhibition constant Ki at Rhodesain was 4880 nM. The CC50 at 24 h in data set [2] was more than 100000 nM. This compound also came in with an EC50 with Trypanosoma brucei of 910 nM. For the same compound, in data set [3], the Kinact worked out at 0.019 min⁻¹.

The values are drawn from ChEMBL document CHEMBL6109075, “Identification of constrained peptidomimetics carrying a Michael acceptor warhead as antitrypanosomal agents” (Eur J Med Chem, 2025).
